Active and inactive are the calls of the source. The calls are words filed in the database; no cut-off is given here.
Columns and labels:
[1] = test system: MCF7; assay: Induction of mitochondrial fusion in human MCF7 cells at 400 nM irradiated with 1.5 J/cm2 UV-light measured after 6 hrs by Mitotracker orange CMTM-ROS/Nuclear green staining based confocal microscopic method; format: functional, cell-based
[2] = test system: MCF7; assay: Induction of lysosomal dysfunction in human MCF7 cells at 400 nM irradiated with 1.5 J/cm2 UV-light measured after 6 hrs by Lysotracker green DND staining based confocal microscopic method; format: functional, cell-based
[3] = Photocytotoxicity against human MCF7 cells assessed as increase in production of radical oxygen species at 400 nM pretreated for 30 mins followed by 1.5 J/cm2 UV-light irradiation for 5 mins measured after 6 hrs by H2DCFDA dye based fluorescence assay relative to control; format: functional
[4] = Photocytotoxicity against human MCF7 cells assessed as increase in production of radical oxygen species at 400 nM pretreated for 30 mins followed by 1.5 J/cm2 UV-light irradiation for 5 mins measured after 2 hrs by H2DCFDA dye based fluorescence assay relative to control; format: functional

CCCCCCCCCCCCCC(=O)O[C@@H]1[C@@H](C)[C@@]2(O)[C@@H](C=C(CO)C[C@]3(O)C(=O)C(C)=C[C@@H]23)[C@@H]2C(C)(C)[C@]12OC(C)=O [PHORBOL MYRISTATE ACETATE]
Activity [1]: Active | Activity [2]: Active | Activity [3]: 420% | Activity [4]: 120%
